Measurements from PubChem BioAssay AID330 (DTP/NCI, 2004).
“And” between values parts separate entries of the source, which are not always exact repeats. Equal values may be shown once. Inconclusive results and toxic doses are left out. Rule for the calls: active = survival T/C of 150% or more; inactive = T/C below 125% in these data.

Tested on: P388 leukemia ip, CD2F1 mice, survival T/C
Assay: NCI In Vivo Anticancer Drug Screen. Data for tumor model P388 Leukemia (intraperitoneal) in CD2F1 (CDF1) mice
Conditions: endpoint: median survival time, higher = longer survival
Outline: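 Mice carrying the transplanted tumor received test compound or vehicle. Survival was recorded in each group, and the value is the treated-group measurement divided by that of the vehicle-treated control group.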

[1] = dose: 50.0 mg/kg/injection, schedule: Q01DX009 (ip), vehicle: Klucel (hydroxypropylcellulose) (HPC)
[2] = dose: 50.0 mg/kg/injection, schedule: Q01DX009 (ip), vehicle: saline with Tween-80
[3] = dose: 100.0 mg/kg/injection, schedule: Q01DX009 (ip), vehicle: saline with Tween-80
[4] = dose: 50.0 mg/kg/injection, schedule: Q01DX005 (ip), vehicle: Klucel (hydroxypropylcellulose) (HPC)
[5] = dose: 100.0 mg/kg/injection, schedule: Q01DX005 (ip), vehicle: Klucel (hydroxypropylcellulose) (HPC)
[6] = dose: 200.0 mg/kg/injection, schedule: Q01DX005 (ip), vehicle: Klucel (hydroxypropylcellulose) (HPC)
[7] = dose: 50.0 mg/kg/injection, schedule: Q01DX005 (ip), vehicle: saline with Tween-80
[8] = dose: 100.0 mg/kg/injection, schedule: Q01DX005 (ip), vehicle: saline with Tween-80
[9] = dose: 200.0 mg/kg/injection, schedule: Q01DX005 (ip), vehicle: saline with Tween-80

Measured: T/C

O=S(=O)(c1ccc(Cl)cc1)N(Cl)Cl
inactive: dose: 6.25 mg/kg/injection, schedule: Q01DX009 (ip), vehicle: Klucel (hydroxypropylcellulose) (HPC) 107 % of control | dose: 12.5 mg/kg/injection, schedule: Q01DX009 (ip), vehicle: Klucel (hydroxypropylcellulose) (HPC) 100 % of control | dose: 25.0 mg/kg/injection, schedule: Q01DX009 (ip), vehicle: Klucel (hydroxypropylcellulose) (HPC) 101 % of control and 116 % of control | [1] 105 % of control

Nc1ncnc2c1c(C(=O)O)cn2C1OC(CO)C(O)C1O (stereo not drawn)
inactive: dose: 25.0 mg/kg/injection, schedule: Q04DX003 (ip), vehicle: saline with Tween-80 120 % of control | [2] 118 % of control | [3] 86 % of control

CC1CN(CC#CCN2C(=O)CCC2=O)CC(C)O1 (stereo not drawn)
inactive: dose: 25.0 mg/kg/injection, schedule: Q01DX005 (ip), vehicle: Klucel (hydroxypropylcellulose) (HPC) 103 % of control | [4] 107 % of control | [5] 103 % of control | [6] 107 % of control

O=C1C(=O)c2nc3ccccc3nc2-c2ccccc21
inactive: dose: 25.0 mg/kg/injection, schedule: Q01DX005 (ip), vehicle: water 103 % of control | dose: 50.0 mg/kg/injection, schedule: Q01DX005 (ip), vehicle: water 97 % of control | dose: 100.0 mg/kg/injection, schedule: Q01DX005 (ip), vehicle: water 100 % of control | dose: 200.0 mg/kg/injection, schedule: Q01DX005 (ip), vehicle: water 96 % of control | dose: 400.0 mg/kg/injection, schedule: Q01DX005 (ip), vehicle: water 104 % of control

CCCOC1C=C(C)C(=O)O1 (stereo not drawn)
inactive: dose: 40.5 mg/kg/injection, schedule: Q01DX005 (ip), vehicle: saline with Tween-80 103 % of control | dose: 81.0 mg/kg/injection, schedule: Q01DX005 (ip), vehicle: saline with Tween-80 104 % of control | dose: 162.0 mg/kg/injection, schedule: Q01DX005 (ip), vehicle: saline with Tween-80 112 % of control

O=C(NC(ON1CCCCC1)C(=O)O)c1ccccc1 (stereo not drawn)
inactive: [1] 104 % of control | dose: 100.0 mg/kg/injection, schedule: Q01DX009 (ip), vehicle: Klucel (hydroxypropylcellulose) (HPC) 102 % of control | dose: 200.0 mg/kg/injection, schedule: Q01DX009 (ip), vehicle: Klucel (hydroxypropylcellulose) (HPC) 98 % of control

CCCCCCCN(CCCCCCC)CC(O)c1c(Br)c2cc(Br)ccc2c2ccc(Br)cc12 (stereo not drawn)
inactive: dose: 1.25 mg/kg/injection, schedule: Q01DX009 (ip), vehicle: saline with Tween-80 105 % of control | dose: 2.5 mg/kg/injection, schedule: Q01DX009 (ip), vehicle: saline with Tween-80 106 % of control | dose: 5.0 mg/kg/injection, schedule: Q01DX009 (ip), vehicle: saline with Tween-80 100 % of control

CCN(CC)CC(C)(C)C(=O)/C=C/c1ccccc1
inactive: dose: 60.0 mg/kg/injection, schedule: Q01DX005 (ip), vehicle: saline 103 % of control | dose: 120.0 mg/kg/injection, schedule: Q01DX005 (ip), vehicle: saline 102 % of control | dose: 240.0 mg/kg/injection, schedule: Q01DX005 (ip), vehicle: saline 115 % of control

Cc1nc2ccccc2c(=O)n1/N=C/c1cccc([N+](=O)[O-])c1
inactive: [7] 104 % of control | [8] 99 % of control | [9] 98 % of control

N#CC1CNC(N)NC1N (stereo not drawn)
inactive: dose: 60.0 mg/kg/injection, schedule: Q01DX005 (ip), vehicle: Klucel (hydroxypropylcellulose) (HPC) 99 % of control | dose: 120.0 mg/kg/injection, schedule: Q01DX005 (ip), vehicle: Klucel (hydroxypropylcellulose) (HPC) 91 % of control | dose: 240.0 mg/kg/injection, schedule: Q01DX005 (ip), vehicle: Klucel (hydroxypropylcellulose) (HPC) 90 % of control

O=C(CC(O)(C(F)(F)F)C(F)(F)F)CC(O)(C(F)(F)F)C(F)(F)F
inactive: dose: 0.5 mg/kg/injection, schedule: Q04DX003 (ip), vehicle: saline + alcohol 95 % of control | dose: 1.0 mg/kg/injection, schedule: Q04DX003 (ip), vehicle: saline + alcohol 100 % of control | dose: 1.25 mg/kg/injection, schedule: Q04DX003 (ip), vehicle: saline with Tween-80 100 % of control and 95 % of control | dose: 2.0 mg/kg/injection, schedule: Q04DX003 (ip), vehicle: saline + alcohol 90 % of control | dose: 2.5 mg/kg/injection, schedule: Q04DX003 (ip), vehicle: saline with Tween-80 100 % of control | dose: 5.0 mg/kg/injection, schedule: Q04DX003 (ip), vehicle: saline with Tween-80 100 % of control and 91 % of control

O=C(CN1CCCCC1)Nc1ccc2c(c1)C(=O)c1ccc(NC(=O)CN3CCCCC3)cc1C2=O
inactive: [4] 90 % of control and 97 % of control | dose: 50.0 mg/kg/injection, schedule: Q01DX005 (ip), vehicle: acid diluted with saline 100 % of control | [5] 90 % of control and 94 % of control | dose: 100.0 mg/kg/injection, schedule: Q01DX005 (ip), vehicle: acid diluted with saline 106 % of control | [6] 90 % of control and 95 % of control | dose: 200.0 mg/kg/injection, schedule: Q01DX005 (ip), vehicle: acid diluted with saline 108 % of control

C=C1C(=O)CC2C3C1C2(C)CCC(OC(C)=O)C3(C)C (stereo not drawn)
inactive: dose: 5.5 mg/kg/injection, schedule: Q01DX005 (ip), vehicle: Klucel (hydroxypropylcellulose) (HPC) 93 % of control | dose: 11.0 mg/kg/injection, schedule: Q01DX005 (ip), vehicle: Klucel (hydroxypropylcellulose) (HPC) 93 % of control | dose: 22.0 mg/kg/injection, schedule: Q01DX005 (ip), vehicle: Klucel (hydroxypropylcellulose) (HPC) 100 % of control | dose: 44.0 mg/kg/injection, schedule: Q01DX005 (ip), vehicle: Klucel (hydroxypropylcellulose) (HPC) 103 % of control

C=C(C)CC1(CCCCCCCCCC)C(=O)NC(=O)NC1=O
inactive: dose: 50.0 mg/kg/injection, schedule: Q04DX003 (ip), vehicle: saline with Tween-80 105 % of control | dose: 100.0 mg/kg/injection, schedule: Q04DX003 (ip), vehicle: saline with Tween-80 102 % of control | dose: 200.0 mg/kg/injection, schedule: Q04DX003 (ip), vehicle: saline with Tween-80 93 % of control

COc1ccc(CCN(Cc2ccc([N+](=O)[O-])cc2)C(=O)c2ccccc2)c(C=O)c1OC
inactive: dose: 100.0 mg/kg/injection, schedule: Q01DX001 (ip), vehicle: saline + alcohol 95 % of control | dose: 200.0 mg/kg/injection, schedule: Q01DX001 (ip), vehicle: saline + alcohol 97 % of control | dose: 400.0 mg/kg/injection, schedule: Q01DX001 (ip), vehicle: saline + alcohol 89 % of control

CCC(c1ccc(OCC(=O)OCCNCCCl)cc1)C(CC)c1ccc(OCC(=O)OCCNCCCl)cc1 (stereo not drawn)
inactive: dose: 25.0 mg/kg/injection, schedule: Q04DX002 (ip), vehicle: saline 101 % of control | dose: 50.0 mg/kg/injection, schedule: Q04DX002 (ip), vehicle: saline 97 % of control | dose: 100.0 mg/kg/injection, schedule: Q04DX002 (ip), vehicle: saline 101 % of control | dose: 100.0 mg/kg/injection, schedule: Q04DX002 (ip), vehicle: suspension in saline 97 % of control | dose: 200.0 mg/kg/injection, schedule: Q04DX002 (ip), vehicle: suspension in saline 87 % of control

O=C1OCC(c2ccccc2)(c2ccccc2)C(=O)N1O
inactive: [7] 98 % of control | [8] 103 % of control | [9] 91 % of control

NC(CSS(=O)(=O)O)C(=O)O (stereo not drawn)
inactive: dose: 50.0 mg/kg/injection, schedule: Q01DX005 (ip), vehicle: saline 101 % of control | dose: 100.0 mg/kg/injection, schedule: Q01DX005 (ip), vehicle: saline 106 % of control | dose: 200.0 mg/kg/injection, schedule: Q01DX005 (ip), vehicle: saline 101 % of control

CCCc1cc(=O)[nH]c(Sc2c([N+](=O)[O-])ncn2C)n1
inactive: [2] 103 % of control | [3] 95 % of control | dose: 200.0 mg/kg/injection, schedule: Q01DX009 (ip), vehicle: saline with Tween-80 91 % of control

COC1/C=C/OC2(C)Oc3c(C)c(O)c4c(O)c(c(/C=N/N5C(C)CN(Cc6cccc(C#N)c6)CC5C)c(O)c4c3C2=O)NC(=O)/C(C)=C\C=C\C(C)C(O)C(C)C(O)C(C)C(OC(C)=O)C1C (stereo not drawn)
inactive: dose: 12.5 mg/kg/injection, schedule: Q01DX009 (ip), vehicle: saline with Tween-80 110 % of control | dose: 25.0 mg/kg/injection, schedule: Q01DX009 (ip), vehicle: saline with Tween-80 109 % of control | [2] 109 % of control and 118 % of control

COc1ccc(Nc2ccc([N+](=O)[O-])c3nonc23)cc1
inactive: [7] 92 % of control | [8] 87 % of control

CC1=C[S+](c2ccccc2)c2cccc3cc4ccccc4c1c23 (stereo not drawn)
inactive: dose: 0.62 mg/kg/injection, schedule: Q04DX003 (ip), vehicle: saline 100 % of control | dose: 1.25 mg/kg/injection, schedule: Q04DX003 (ip), vehicle: saline 100 % of control | dose: 2.5 mg/kg/injection, schedule: Q04DX003 (ip), vehicle: saline 104 % of control
